In PMC8360061, “Search for the Active Ingredients from a 2‐Aminothiazole DMSO Stock Solution with Antimalarial Activity” (Chemmedchem, 2021):
Where two headings read alike, the source gives them in different places.

Legend:
[1] = test system: Plasmodium falciparum drug-sensitive NF54; assay: Antimalarial assay, [3H]hypoxanthine incorporation; type: cell-based; details: Plasmodium falciparum
Procedure: (§1) Due to the nature of the study, some decomposition samples w ere only tested once and thus, for some formal standard error, […]
For the final purified compounds, replicates were measured and standard deviation was calculated at least from two replicates.
1.2 General Procedure for Antimalarial Assay
Plasmodium falciparum drug-sensitive NF54 (airport strain from The Netherlands, provided by F. Hoffmann-La Roche Ltd) was cultivated in a variation of the medium consisting of RPMI 1640 supplemented with 0.5% ALBUMAX® II, 25 mM Hepes, 25 mM NaHCO3 (pH 7.3), 0.36 mM hypoxanthine, and 100 μg/mL neomycin, as previously described.[4,5] Human erythrocytes served as host cells.
Cultures were maintained in an atmosphere of 3% O2, 4% CO2, and 93% N2 in humidified modular chambers at 37 °C. Compounds were dissolved in MeOH (10 mM), diluted in hypoxanthine-free culture medium and titrated in duplicates over a 64-fold range in 96 well plates. Infected erythrocytes (1.25% final hematocrit and 0.3% final parasitemia) were added into the wells. After 48 h incubation, 0.25 μCi of [3H]hypoxanthine was added per well and plates were incubated for an additional 24 h. Parasites were harvested onto glass-fiber filters and radioactivity was counted using a Betaplate liquid scintillation counter (Wallac, Zurich). Chloroquine […]
The results were recorded and expressed as a percentage of the untreated controls. Fifty percent inhibitory concentrations (IC50) were estimated by linear interpolation.[6] […]

[2] = biological target: PK/LDH (pyruvate kinase and lactate dehydrogenase); assay: PK/LDH auxiliary enzyme assay; type: biochemical; details: SFC-separated compound, dissolved in methanol shortly before the assay
Procedure: (§2) Firstly, we performed a temperature‐dependent decomposition study of compound 1 at 10 mM concentration in DMSO at room temperature (RT), +4 °C and −20 °C (SI, Section 2.3). […] Besides visual inspection of the colour changes of the test sample (see Table 2), the decomposition was monitored by HRMS and NMR spectroscopy. […] Furthermore, all three samples were tested for their inhibitory activity against PfIspE after the incubation period. […] In the IspE assay, the activity of the target enzyme is coupled to the oxidation of NADH (which can be followed spectrophotometrically at 340 nm) via a cascade of the auxiliary enzymes pyruvate kinase and lactate dehydrogenase (PK/LDH).[10] […] Three samples of compound 1 were tested in PK/LDH assay (Table 2).
(§3) 1.1 General Procedure for Enzymatic Assay
(§4) The cloning, expression and purification of Plasmodium falciparum[1] and Escherichia coli[2,3] and their subsequent assays followed the previously reported procedures .[1] In some specified cases, the tested compound was dissolved in methanol or acetonitrile for the assay .
as §1
(§5) For the final purified compounds, replicates were measured and standard deviation was calculated at least from two replicates. […]
(§6) 2.) Decomposition Study Procedure
(§7) All reagents and solvents were of commercial quality and used without further purification.
Low resolution mass analytics and purity controls were carried out using an Ultimate 3000-ISQ liquid-chromatography mass spectrometry (LCMS) system (Thermo Fisher Scientific, Dreieich, Germany) consisting of a Dionex UltiMate pump, an autosampler, DAD detector and an ESI quadrupole mass spectrometer. NMR spectra were recorded on a Bruker AV 500 or Ascend 700 (1H, 500 MHz or 700 MHz; 13C, 126 MHz or 175 MHz; 19F, 470 MHz) spectrometer. All spectra were measured in DMSO -d6, methanol-d4, acetone-d6 or acetonitrile-d3 to which reported

PfIspE = PfIspE (Plasmodium falciparum, UniProt Q8I470); assay: PfIspE enzymatic assay (coupled to PK/LDH, NADH oxidation at 340 nm); type: biochemical
Procedure: as §2
(§8) Another approach to address this issue is to perform the IspE assay with one or several orthologues of PfIspE. […] The IspE assay setup was identical for both Pf and EcIspE orthologs except for the target enzyme used. One of the setup requirements was that the enzymatic activity of the auxiliary enzymes PK/LDH exceeded the activity of the target enzyme IspE not less than a factor of ten.[10] We investigated, if the inhibition of the auxiliary enzymes may substantially influence the IC50 values obtained from the coupled IspE assay.
as §3, §4, §1, §5, §6, §7

[3] = Decomposition study of stock solutions (HRMS, NMR); type: physicochemical; details: 10 mM DMSO stock at RT, after one day
Procedure: Firstly, we performed a temperature‐dependent decomposition study of compound 1 at 10 mM concentration in DMSO at room temperature (RT), +4 °C and −20 °C (SI, Section 2.3). After seven days, 64 % of the sample stored at RT had decomposed (SI, Table S1). Besides visual inspection of the colour changes of the test sample (see Table 2), the decomposition was monitored by HRMS and NMR spectroscopy. […] Furthermore, all three samples were tested for their inhibitory activity against PfIspE after the incubation period. […] This fact correlated with the degree of chemical transformation of compound 1 (Table S1). In the IspE assay, the activity of the target enzyme is coupled to the oxidation of NADH (which can be followed spectrophotometrically at 340 nm) via a cascade of the auxiliary enzymes pyruvate kinase and lactate dehydrogenase (PK/LDH).[10] Therefore, we next confirmed, whether the effects observed in the IspE assay are due to inhibition of the target enzyme or of the auxiliary enzymes. Three samples of compound 1 were tested in PK/LDH assay (Table 2).
Secondly, we analysed if spontaneous chemical transformation of compound 1 may depend on the solvent used for the preparation of its stock solutions. We incubated 10 mM stock preparations of compound 1 in DMSO, acetonitrile (ACN) and methanol (MeOH) at RT. Aliquots were taken during 16 days of incubation and tested against the enzyme PfIspE (Table 3). […] For further decomposition incubation of compound 1, only DMSO was used as solvent.
2.3 Temperature-Dependent Study
Compound 1 was dissolved in DMSO to afford 10 mM stock solution, in the scale of 3.65 mg in 1 mL. Three aliquots were prepared and one each was stored inside a light -protecting box at different temperatures: room temperature (RT), +4 °C and –20 °C. Samples were only taken to RT for the minimum time required for sampling. Samples were further d iluted with acetonitrile to 10 µM (1:1000) for HRMS analysis. For calibration, a fresh stock solution of the compound 1 was prepared shortly before the analysis. The concentration range used for the calibration was from 10 µM to 20 nM, including 10 samples with 1:1 dilutions starting from the highest concentration (Appendix I). In all of the calibration points and samples, diphenhydramine ( m/z: 256.16907 [M+H]+) was included as an internal standard at the concentration of 500 nM. The results were analysed using Thermo Xcalibur Quan Browser. Similarly, three NMR samples of compound 1 were prepared in DMSO-d6 and each stored at different temperatures; RT, +4 °C and –20 °C, (Figure S8).
Table S1. Summary of the decomposition of compound 1 at different temperatures with the corresponding enzymatic activities measured after three months.
The Percentage of Compound 1 Left After Degradation after 3 months of decomposition[b] Temperature Day 7 1 month 2 months PfIspE IC50 EcIspE IC50 PK/LDH IC50 […]
[a] [b] Errors given as formal standard error. n.d.: not determined, PK/LDH: pyruvate kinase and lactate dehydrogenase, Pf: Plasmodium falciparum, Ec: Escherichia coli.
Figure S7. The HRMS recorded for the samples submitted to the enzyme assay after 3 months of decomposition with the corresponding colour differences. […]
2.4 Solvent-Dependent Study
As in the Section 2.3, stock solutions of compound 1 were prepared in DMSO, ACN and MeOH and stored at RT for 16 days in a box protected from light . Samples were collected during this time and the enzymatic activity was analysed for them as in main text, Table […]
compound 1 for ACN or MeOH was detectible (Figures S11–12). Similarly, the old samples of compound 1 used for enzyme and cell assays were analysed with HRMS (Figure S13). Additionally, NMR sample in MeOH was prepared and measured over time while stored at RT. As a follow-up experiment, the stability of compound 1 was determined for its 10 mM stock solution in Tris-HCl (pH 7.6) with and without 5% DMSO and Cyrene™ with HRMS (Figure S16–18). […]

EcIspE = biological target: T1, EcIspE (Escherichia coli, UniProt P62615); assay: EcIspE enzymatic assay (coupled to PK/LDH); type: biochemical; details: fractions of second purification
T1 construct: made in house
Excerpt: as §8, §3, §4, §1, §5, §6, §7
Low resolution mass analytics and purity controls were carried out using an Ultimate 3000-ISQ liquid-chromatography mass spectrometry (LCMS) system (Thermo Fisher […]

[4] = fractions of second purification (DMSO, RT, five days), dissolved in ACN
[5] = fractions of second purification (DMSO, RT, five days), dissolved in MeOH

T1 sequence (P62615 whole entry): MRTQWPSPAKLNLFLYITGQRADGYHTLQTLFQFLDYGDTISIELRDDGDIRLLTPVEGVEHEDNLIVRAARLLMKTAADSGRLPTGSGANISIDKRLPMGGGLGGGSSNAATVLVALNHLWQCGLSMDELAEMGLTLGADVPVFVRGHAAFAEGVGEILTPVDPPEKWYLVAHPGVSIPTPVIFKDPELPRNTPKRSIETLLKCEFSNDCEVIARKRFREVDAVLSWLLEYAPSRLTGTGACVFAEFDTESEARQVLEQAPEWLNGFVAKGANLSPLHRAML
PfIspE, sequence (Q8I470 entry or part of it): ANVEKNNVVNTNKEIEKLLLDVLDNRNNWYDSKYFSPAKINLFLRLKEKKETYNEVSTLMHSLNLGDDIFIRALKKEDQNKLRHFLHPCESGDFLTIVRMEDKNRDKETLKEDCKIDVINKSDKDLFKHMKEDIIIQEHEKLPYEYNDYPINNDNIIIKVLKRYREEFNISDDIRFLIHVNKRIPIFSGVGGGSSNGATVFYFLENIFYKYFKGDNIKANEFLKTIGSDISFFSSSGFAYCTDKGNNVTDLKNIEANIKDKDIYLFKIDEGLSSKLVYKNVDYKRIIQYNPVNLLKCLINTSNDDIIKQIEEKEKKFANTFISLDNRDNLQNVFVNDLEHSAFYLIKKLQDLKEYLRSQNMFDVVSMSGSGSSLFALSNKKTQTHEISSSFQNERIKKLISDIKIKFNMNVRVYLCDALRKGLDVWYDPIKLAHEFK

SMILES | IC50 (PfIspE; [4]) [µM] | IC50 (PfIspE; [5]) [µM] | decomposition in DMSO at RT: dimerisation (HRMS, in words) [3] | IC50 (EcIspE; dissolved in ACN) [µM] | IC50 (EcIspE; dissolved in MeOH) [µM] | further results
CCN(CC)CCCC(C)Nc1ccnc2cc(Cl)ccc12 (centres unmarked) [Chloroquine, reference compound] |  |  |  |  |  | IC50 ([1]; NF54, read-out: PfNF54 IC50): 3.1 ± 0.8 ng/mL
CCn1c(C)cc(-c2csc(N(c3ccccc3C(F)(F)F)N(C3=NC(=C4C=C(C)[N+](CC)=C4C)CS3)c3ccccc3C(F)(F)F)n2)c1C [DP2] |  |  |  |  |  | IC50 [2]: 37 ± 4 µM; IC50 (PfIspE; SFC-separated compound, dissolved in methanol shortly before the assay): 59 ± 4 µM; IC50 ([1]; NF54, 72 h, SFC-separated compound, dissolved in methanol shortly before the assay, 72 hours, highest concentration tested 20 μM, read-out: PfNF54 IC50): 2.1 ± 0.2 µM
CCn1c(C)cc(-c2csc(Nc3ccccc3OC)n2)c1C [Compound 2, 4-(1-Ethyl-2,5-dimethyl-1H-pyrrol-3-yl)-N-(2-methoxyphenyl)thiazol-2-amine] | > 1530 | > 1530 | dimerising mainly into the predicted N−N dimers | > 1530 | > 1530 | IC50 (PfIspE; first screening, from a single measurement, not reproducible later): 191 µM; IC50 (PfIspE; fresh batch, freshly prepared stock solution): > 500 µM
Cc1cc(-c2csc(Nc3ccccc3C(F)(F)F)n2)c(C)n1CC1CCCO1 (centres unmarked) [Compound 4, 4-(2,5-Dimethyl-1-((tetrahydrofuran-2-yl)methyl)-1H-pyrrol-3-yl)-N-(2-(trifluoromethyl)phenyl)thiazol-2-amine] | > 1190 | 112 | no dimerisation | > 1190 | 292 | IC50 (PfIspE; fractions of first prep. HPLC purification (DMSO, RT, 2.5 weeks), dissolved in DMSO as 1 mg/mL): > 1190 µM
C[C@H]1[C@H](OC(=O)CCC(=O)O)O[C@@H]2O[C@@]3(C)CC[C@H]4[C@H](C)CC[C@@H]1[C@@]24OO3 [artesunate, reference compound] |  |  |  |  |  | IC50 ([1]; NF54, controls of the antimalarial assay, read-out: PfNF54 IC50): 4 ± 1.7 ng/mL
C=CCn1c(C)cc(-c2csc(Nc3ccccc3C(C)C)n2)c1C [Compound 3, 4-(1-Allyl-2,5-dimethyl-1H-pyrrol-3-yl)-N-(2-isopropylphenyl)thiazol-2-amine] | > 1420 | > 1420 | dimerising mainly into the predicted N−N dimers | > 1420 | > 1420 | 
